These results are taken from PMC10369045, “Radiolabelling of peptides with tetrazine ligation based on the inverse electron-demand Diels–Alder reaction: rapid, catalyst-free and mild conversion of 1,4-dihydropyridazines to pyridazines” (RSC Advances, 2023).

Molecules are shown by their SMILES.

Data set [1] in a line: Reversed-phase HPLC-RAD/DAD retention of DHP and pyridazine forms. The settings on record: HPLC-RAD/DAD and HPLC-RAD/UV, Kinetex 5 µm C18 250 × 10.0 mm, 20-50% B in 20 min, H2O/ACN + 0.1% TFA, 3 mL/min, room temperature; elution order used as indication of lipophilicity. The format is physicochemical.
Protocol: The HPLC instruments were equipped with either two channel UV/VIS or a PDA detector, and a NaI(Tl) scintillation detector for detection of radioactivity.
Table S2. The gradient used for HPLC-RAD/DAD studies.
Flow rate: 3 mL/min at room temperature
Column: Phenomenex Kinetex® 5 µm C18 100 Å, LC Column 250 × 10.0 mm
Eluents: (A) H2O+0.1% Trifluoroacetic acid and (B) ACN +0.1% Trifluoroacetic acid
Data set [2] in a line: Incubation tests of IEDDA cycloaddition product (conversion of DHPs to oxidized pyridazine form). The format is physicochemical. The settings on record: for Conversion to oxidized form of the peptide cycloadduct: incubation in ≥95% (v/v) water at 60 °C; for Conversion to oxidized form of the peptide cycloadduct / [18F]AmBF3(ox.)-TOC (%): radio-HPLC. The method, then: Protic solvents in acidic reaction conditions at various temperatures were used in-order to investigate the conditions that might influence the formation of the oxidized form from DHPs or that might slow down the process. […] The (radio)peaks of [^19F/^18F]6(a, b) (peptide 6, tR = 20 min) were successfully converted (≥97%) to the more polar compound (peptide 6, tR = 17 min) by incubation in increasing amounts of water in acetonitrile (Fig. 2C). When incubating in 75% (v/v) ACN in water for 10 min at 60 °C, the conversion to polar (peptide 6, tR = 17 min) compound was 59% (ESI Table S7 ^†).
Table S7. Incubation tests of IEDDA cycloaddition product.
Peptide Peptide Solvent Vol. pH Temp. Time [18F] AmBF3 (ox.)-
(nmol) (v/v-%) (µL) (°C) (min) TOC (%)

A short description of data set [3]: Lipophilicity (LogD7.4), shake-flask method.
Protocol: Lipophilicity. Shake-flask method was used for determining the lipophilicities (LogD7.4) of the radiolabeled
compounds. LogD7.4 was determined as a distribution of radioactivity between 0.01 M PBS and octanol. The
purified radiolabeled compound (25 µL) was added to a 1:1 mixture of 1-octanol and 0.02 M PBS (pH 7.4) in
a 1.5 mL microtube. The mixture was shaken mechanically at 500 rpm for 10 minutes, centrifuged (1000 × g,
5 minutes), and the layers were separated, followed by pipetting a sample (500 µL) from each layer into a pre-
weighed polypropylene tube. The radioactivity in the sample was measured with a Wizard gamma counter.
The distribution of the radiolabeled compound between the octanol and the PBS layers was calculated
The subject of another data set is tumour. The settings on record: ex vivo biodistribution and PET/CT imaging; tumour uptake efficiently blocked; ref earlier cohort by us; cited from earlier work. On the procedure: In this study, we report a rapid, mild, and facile method for converting dihydropyridazine cycloaddition products to pyridazine during IEDDA, in only 10 minutes.
Data set [4] concerns SSTR2-expressing rat pancreatic adenocarcinoma AR42J cells. Nature of the data set: Cell uptake assay in AR42J cells. Type of data set: cell-based. The settings on record: oxidized pyridazine form, gamma counting. On the procedure:
Aoct=activity in the octanol phase
APBS=activity in the PBS phase
Cell-uptake assay in AR42J
The cells were cultured in Gibco™ F-12K Medium
1×PBS was prepared from Phosphate Buffered Saline
Tablets (Fisher Bioreagents, Hampton, USA) in water. 1.0 M Sodium hydroxide was purchased from VWR […]
Chemicals. […] AR42J cells (1×106 per […]
well) were seeded overnight on 6-well plates.
Another set of cells were co-incubated in […]
microtube (=free fraction). […]
washing the cells with cold 1×PBS. […] 1 M NaOH […]
microtube (=internalized fraction).

By logD is commonly meant the decadic logarithm of the distribution of all forms, ionised or not, between an organic phase and buffer at a given pH. Low values mean a more hydrophilic compound, high ones a more lipophilic compound. `C[C@@H](O)[C@@H]1NC(=O)[C@H](CCCCN)NC(=O)[C@@H](Cc2c[nH]c3ccccc23)NC(=O)[C@H](Cc2ccc(O)cc2)NC(=O)[C@@H](NC(=O)[C@@H](Cc2ccccc2)NC(=O)CCOCCOCCOCCOCCON=Cc2ccc(CNC(=O)OC3CCCc4cnnc(-c5ccc(CC(=O)NCC[N+](C)(C)C[B-](F)(F)F)cc5)c4CC3)cc2)CSSC[C@@H](C(=O)N[C@H](CO)[C@@H](C)O)NC1=O` (stereo partly shown) [[18F]5 (ox.), AmBF3-PEG4-TOC]: the Retention time in data set [1] came to 18.7 min. Moreover, the “Conversion to oxidized form of the peptide cycloadduct” value in data set [2] was “full conversion”. Besides, the pH-dependent lipophilicity (logD) in data set [3] (pH 7.4) is 0.58 ± 0.06.
Turning to `C[C@@H](O)[C@@H]1NC(=O)[C@H](CCCCN)NC(=O)[C@@H](Cc2c[nH]c3ccccc23)NC(=O)[C@H](Cc2ccc(O)cc2)NC(=O)[C@@H](NC(=O)[C@@H](Cc2ccccc2)NC(=O)CCOCCOCCOCCOCCON=Cc2ccc(C(=O)NCCOCCOCCOCCNC(=O)OC3CCCC4=C(c5ccc(CC(=O)NCC[N+](C)(C)C[B-](F)(F)F)cc5)NN=CC4CC3)cc2)CSSC[C@@H](C(=O)N[C@H](CO)[C@@H](C)O)NC1=O` (stereo partly shown) [[18F]6 (DHP, a)], the Retention time in data set [1] was 20.6 min.
Regarding `C[C@@H](O)[C@@H]1NC(=O)[C@H](CCCCN)NC(=O)[C@@H](Cc2c[nH]c3ccccc23)NC(=O)[C@H](Cc2ccc(O)cc2)NC(=O)[C@@H](NC(=O)[C@@H](Cc2ccccc2)NC(=O)CCOCCOCCOCCOCCON=Cc2ccc(C(=O)NCCOCCOCCOCCNC(=O)OC3CCCC4=C(c5ccc(CC(=O)NCC[N+](C)(C)C[B-](F)(F)F)cc5)NN=CC4CC3)cc2)CSSC[C@@H](C(=O)N[C@H](CO)[C@@H](C)O)NC1=O` (stereo partly shown) [[18F]6 (DHP, b)], the Retention time in data set [1] was found to be 20.2 min.
On to `C[C@@H](O)[C@@H]1NC(=O)[C@H](CCCCN)NC(=O)[C@@H](Cc2c[nH]c3ccccc23)NC(=O)[C@H](Cc2ccc(O)cc2)NC(=O)[C@@H](NC(=O)[C@@H](Cc2ccccc2)NC(=O)CCOCCOCCOCCOCCON=Cc2ccc(C(=O)NCCOCCOCCOCCNC(=O)OC3CCCc4cnnc(-c5ccc(CC(=O)NCC[N+](C)(C)C[B-](F)(F)F)cc5)c4CC3)cc2)CSSC[C@@H](C(=O)N[C@H](CO)[C@@H](C)O)NC1=O` (stereo partly shown) [[18F]6, AmBF3-PEG7-TOC], for which the “[18F]AmBF3(ox.)-TOC (%)” value was found to be 84% in data set [2] (2 nmol peptide, ACN:H2O (25:75), 60 µL, 60 °C, 15 min, n = 1); 9% in data set [2] (2.5 nmol peptide, 0.15 mM citrate buffer, 180 µL, pH 3.75, 60 °C, 10 min); 89% in data set [2] (2.5 nmol peptide, ACN:H2O (25:75), 20 µL, 60 °C, 10 min); 77% in data set [2] (2.5 nmol peptide, ACN:H2O (40:60), 25 µL, 60 °C, 15 min, n = 1); 59% in data set [2] (2.5 nmol peptide, ACN:H2O (75:25), 20 µL, 60 °C, 10 min, n = 1); 4% in data set [2] (5 nmol peptide, 0.01 mM citrate buffer, 180 µL, pH 4, 37 °C, 10 min). In addition, the “[18F]AmBF3(ox.)-TOC (%)” value in data set [2] (5 nmol peptide, 0.15 mM citrate buffer, 180 µL, pH 3.75, 37 °C, 10 min) was 5%; in data set [2] (5 nmol peptide, 10 x PBS, 180 µL, pH 6.8, 37 °C, 10 min), 5%; in data set [2] (7.5 nmol peptide, ACN:H2O (13:87), 150 µL, 60 °C, 10 min) it was 25%; in data set [2] (7.5 nmol peptide, ACN:H2O (25:75), 20 µL, 40 °C, 20 min), 86%; in data set [2] (2-50 nmol peptide, ACN:H2O (≥95% H2O), 20-200 µL, 60 °C, 10 min, n = 1) it was 100%. The “Conversion of DHP peak cluster (tR ≈ 20 min) to single oxidized peak (tR = 17 min) at room temperature” value in data set [2] (collected HPLC fraction left at room temperature for 18 hours (overnight), HPLC-DAD and UHPLC-HRMS) was “total conversion”. Moreover, in data set [2], the “Conversion to oxidized form of the peptide cycloadduct” value is “full conversion”. Also, the “Tumour visualization in vivo” value in the data set on tumour is reported as “able to visualize the tumour in vivo”. In addition, the “Cell uptake in AR42J cells (specificity, blocking with octreotide)” value in data set [4] (1 million AR42J cells per well, 37 °C, triplicates per timepoint, blocked by co-incubation with excess non-radiolabelled octreotide) is “specific uptake”. For the same molecule, the “Internalization by AR42J cells” value in data set [4] (internalized fraction after glycine buffer (pH 2.8) wash and 1 M NaOH lysis) was “internalized by the cells”. In data set [3] (shake-flask 1-octanol/PBS (pH 7.4) 1:1, 25 µL purified radiolabelled compound, shaken 500 rpm 10 min, centrifuged 1000 × g 5 min, gamma counter, mean ± SD, n = 3-4, HPLC-separated fractions (DHP a 77%, DHP b 88% pure), listed as [^18F]6(ox.)), this molecule yielded a LogD7.4 of −0.73 ± 0.12.
